Reference: PubChem BioAssay AID1626 (SRMLSC, 2009)

Tested on: M. tuberculosis H37Rv growth inhibition
Test: M. tuberculosis H37Rv growth inhibitors, H37Rv strain (AID 1626)
Conditions: for IC90: measured here: IC90 against H37Rv; for CC50: measured here: Vero cell cytotoxicity

| Compound | IC50 [µM] | IC90 [µM] | CC50 [µM] |
| --- | --- | --- | --- |
| COc1cccc(NC(=O)c2cc(-c3ccncc3)nc3c(C)cc(C)cc23)c1 | 10.9 | 18.5 | > 40 |
| COc1cccc(/C=C2\Sc3ccc(C(=O)NCc4cccnc4)cc3N(C)C2=O)c1 | 2.83 | 6.21 | > 40 |
| Cc1ccc(C2=Nc3ccccc3SC(c3cccc([N+](=O)[O-])c3)C2)cc1 (stereo unspecified) | 3.71 | 5.74 | 33 |
| O=C(/C=C/c1ccc([N+](=O)[O-])s1)N1CCCCC1 | 6.4 | 10.6 | > 40 |
| Cc1ccc(-c2[nH]nc(N)c2N=Nc2ccccc2C)cc1 | 5.45 | 8.36 | > 40 |
| Cc1cccc(Cc2cnc(N3C(=N)SC(c4ccccc4)C3=O)s2)c1 (stereo unspecified) | 8.81 | > 100 | 36.8 |
| C=CCn1c(O)c(C(C)=Nc2ccc(C(=O)OCC)cc2)c(=O)[nH]c1=O | 14 | > 100 | – |
| N#CCC1c2ccccc2CCN1C(=O)Nc1ccc(C(F)(F)F)cc1 (stereo unspecified) | 5.9 | > 100 | – |
| CCOC(=O)COc1cc(OCC(=O)OCC)c2c(=O)cc(-c3ccccc3)oc2c1 | 1.37 | 3.74 | – |
| COc1cccc2sc(N(CCCN(C)C)C(=O)C(c3ccccc3)c3ccccc3)nc12 | 13.5 | 18.4 | 21.8 |
| CCC1CCCCN1C(=O)COC(=O)c1cc(Br)ccc1Cl (stereo unspecified) | 15.2 | > 100 | – |
| Nc1ccc2c(c1)Cc1ccccc1-2 | 18.3 | > 100 | – |
| O=C(CCl)Nc1cn(-c2ccccc2)nc1-c1ccccc1 | 9.87 | 38.6 | 9.49 |
| COc1cccc(CC2(CO)CCCN(Cc3[nH]c4ccc(C)cc4c3C)C2)c1 (stereo unspecified) | 8.49 | 11.2 | > 40 |
| Cc1ccc(-n2c(C)nc3c(cnn3-c3ccc(C)c(C)c3)c2=O)cc1C | – | – | > 40 |
| COC(=O)Cc1ccc(NC(=O)c2ccc(Br)o2)cc1 | – | > 100 | – |
| CC(Oc1ccc(Cl)cc1Cl)c1nc(-c2ccc(NC(=O)c3ccncc3)cc2)no1 (stereo unspecified) | 33.5 | > 100 | > 40 |
| CC(=O)c1ccc(NC(=O)COC(=O)c2c3c(nc4ccccc24)/C(=C\c2cccs2)CCC3)cc1 | 0.449 | > 100 | 13.6 |
| CCC(CO)[n+]1c(C)cc(/C=C2\Sc3ccccc3N2Cc2ccccc2)cc1C (stereo unspecified) | 1.3 | 1.95 | 23.2 |
| c1ccc(CN2CCC(N=C3NN=C(c4ccc5c(c4)OCCO5)CS3)CC2)cc1 | 18.2 | 21.6 | > 40 |

| Compound | IC50 [µM] | IC90 [µM] | CC50 [µM] |
| --- | --- | --- | --- |
| Cc1ccc(C(=O)Nc2nnc(-c3ccco3)o2)cc1C | < 0.195 | > 100 | > 40 |
| COc1ccc(CNCc2cc3c(C(C)(C)C)nn(-c4ccccc4)c3[nH]c2=O)cc1 | 11.4 | 13 | > 40 |
| O=C(Nc1ncc(Cc2cccc(Cl)c2)s1)C1=NCCN1 | 6.98 | > 100 | > 40 |
| O=C(NCCc1c[nH]c2ccccc12)c1cc2ccccc2oc1=O | < 0.195 | < 0.195 | – |
| CC(C)(C)C(=O)/C=C/Nc1ccccc1O | 2.55 | 3.93 | > 40 |
| O=Cc1ccc(-c2ccc(Cl)cc2Cl)[nH]1 | 8.46 | > 100 | – |
| c1ccc(OCCOCCN2CCN(C(c3ccccc3)c3ccccc3)CC2)cc1 | 11.7 | 13.5 | > 40 |
| CC(C)Cn1c(N2CCN(C(=O)/C=C/c3ccccc3)CC2)nc2ccccc21 | 21.5 | 29.9 | – |
| CCCCCCCCn1cnc2c(N)c(C)c(C)cc21 | 15.9 | 21.4 | – |
| O=C1c2ccccc2-n2c1nc1ccccc1c2=O | < 0.195 | 0.601 | > 40 |
| Nc1nc(-c2cccc(F)c2)cs1 | 11.2 | > 100 | – |
| CC1CCN(C(=O)COC(=O)c2cc3ccccc3cc2O)CC1 | 0.634 | 2.51 | – |
| CCOCC(=O)Nc1ccc(OCc2ccccc2)cc1 | 29.5 | > 100 | – |
| COc1ccc(N=C2C(=O)Nc3ccccc32)cc1 | – | > 100 | – |
| COC(=O)CSc1nnc(-c2sc3ccccc3c2Cl)o1 | 8.67 | 36.2 | – |
| COc1cc(-c2nc3ccc4ccccc4c3c3c2CCC3)cc(OC)c1O | 13.1 | 18.8 | > 40 |
| Cc1nc(S/C(=C/c2ccc(-c3ccc(Cl)cc3)o2)C(=O)O)n[nH]1 | 10.6 | > 100 | > 40 |
| Cc1ccc(-n2c(-c3ccc(Br)cc3)c[n+]3c2CCc2ccc4cccnc4c2-3)cc1 | 0.76 | 1.07 | 5.51 |
| CCCCn1c(=O)c(C(=O)Nc2nnc(C(C)C)s2)c(O)c2ccccc21 | 0.767 | 0.841 | > 40 |
| Cc1[nH]n2c(=O)cc(C(C)(C)C)nc2c1-c1ccccc1 | 0.407 | 2.91 | 13.1 |
